# Assay results from patent US6670368B1, “Pyrimidine compounds with pharmaceutical activity” (AstraZeneca AB, priority 1999, dated 2003).
# Target: T1, CDK4/Cyclin D1 (Homo sapiens, UniProt P11802)
# T1 construct: made in house; host or cells: SF21 (Spodoptera frugiperda) insect cells, baculovirus co-infection, vector pVL1393
# Test: in vitro kinase assay (Scintillation Proximity Assay), incorporation of [γ-33-P]-ATP into GST-Retinoblastoma
# Type: biochemical
# Conditions: CDK4/Cyclin D1 partially-purified enzyme, GST-Rb substrate, 0.2 μM ATP, room temperature 60 minutes; read-out: CDK4 inhibitory activity IC50
# Experimental: The compounds were tested in an in vitro kinase assay in 96 well format using Scintillation Proximity Assay (SPA-obtained from Amersham) for measuring incorporation of [γ-33-P]-Adenosine Triphosphate into a test substrate (GST-Retinoblastoma). In each well was placed the compound to be tested (diluted in DMSO and water to correct concentrations) and in control wells either p16 as an inhibitor control or DMSO as a positive control.
# Approximately 0.5 μl of CDK4/Cyclin D1 partially-purified enzyme (amount dependent on enzyme activity) diluted in 25 μl incubation buffer was added to each well then 20 μl of GST-Rb/ATP/ATP33 mixture (containing 0.5 μg GST-Rb and 0.2 μM ATP and 0.14 μCi [γ-33-P]-Adenosine Triphosphate), and the resulting mixture shaken gently, then incubated at room temperature for 60 minutes. To each well was then added 150 μL stop solution containing (0.8 mg/well of Protein A-PVT SPA bead (Amersham)), 20 pM/well of Anti-Glutathione Transferase, Rabbit IgG (obtained from Molecular Probes), 61 mM EDTA and 50 mM HEPES pH 7.5 containing 0.05% sodium azide.
# The plates were sealed with Topseal-S plate sealers, left for two hours then spun at 2500 rpm, 1124×g., for 5 minutes. The plates were read on a Topcount for 30 seconds per well. […]
# T1 sequence (P11802 whole entry): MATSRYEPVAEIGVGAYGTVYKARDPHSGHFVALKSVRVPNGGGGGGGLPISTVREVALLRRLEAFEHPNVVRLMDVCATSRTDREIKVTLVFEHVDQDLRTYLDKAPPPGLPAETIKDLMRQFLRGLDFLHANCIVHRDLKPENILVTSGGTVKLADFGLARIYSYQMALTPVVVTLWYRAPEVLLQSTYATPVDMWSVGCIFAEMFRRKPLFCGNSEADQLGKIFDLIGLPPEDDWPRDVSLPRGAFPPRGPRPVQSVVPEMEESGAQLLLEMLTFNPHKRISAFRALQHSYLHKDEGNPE
# T1 sequence (P24385 whole entry partner): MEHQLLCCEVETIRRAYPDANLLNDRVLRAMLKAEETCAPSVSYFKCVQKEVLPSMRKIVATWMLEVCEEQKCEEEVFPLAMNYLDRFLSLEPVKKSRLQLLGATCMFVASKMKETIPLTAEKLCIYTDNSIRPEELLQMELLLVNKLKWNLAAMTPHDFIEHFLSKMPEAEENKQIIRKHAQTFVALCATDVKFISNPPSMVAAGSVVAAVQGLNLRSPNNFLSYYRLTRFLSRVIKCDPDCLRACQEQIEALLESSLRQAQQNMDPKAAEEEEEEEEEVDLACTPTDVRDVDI
compound,measurement,value
Cc1ccc(C)c(Oc2cc(Nc3ccc(OCC(O)CN(C)C)cc3)ncn2)c1 (stereo not shown) [Example 6],IC50,1200 nM
